{
  "source": "patent US20220218736A1",
  "about": "“NEW THERAPY” (INDEX PHARMACEUTICALS AB, priority 2018, published 2022)",
  "key": {"[1]": {"tested_on": "chronic DSS-induced colitis", "assay": "Chronic DSS-induced mouse model of colitis; colon length and weight/length ratio", "type": "in vivo, C57BL/6 mice", "details": "Day 30; for colon-shortening effects of DSS (colon length): Days 4-28 every 4 days", "excerpt": "The objective of this study was to test the efficacy of cobitolimod as a maintenance therapy in the chronic DSS-induced mouse model of colitis.\n37 male C57BL/6 mice were enrolled in the chronic DSS-induced colitis study and housed for a stabilization period of 5 days prior to the study. All animals were housed in HEPA-ventilated cages with sani-chips bedding. Domes and sterile cotton scratch pads were provided for enrichment. Fluorescent lighting was provided on a 12-hour cycle. Temperature and humidity were monitored and recorded daily and maintained to 20-23° C. temperature, and 30-70% relative humidity. 2018S 18% protein rodent maintenance diet was provided ad libitum.\nCobitolimod was diluted in saline either to 125 μg/100μ1 (1.25 μg/μl, dose 1) or 500 μg/100 μl (5 μg/μl, dose 2) in the beginning of the experiment. The solution was aliquoted and kept at 4° C. for the duration of the experiment. At each administration day 100 μl was administered to the mice rectally. FTY-720 (S1P1 receptor inhibitor) was dissolved in dH2O and served as positive control. For a dose of 1 mg/kg, using an average body weight of 30 grams, the compound was prepared and 100 μL orally dosed daily to each animal.\n9 week old mice received 2% DSS dissolved into autoclaved water ad libitum (Group 2-5, n=8 each per group) for 5 days, and were switched to autoclaved drinking water for the next five days. This cycle was repeated, alternating between DSS treatment and autoclaved water, every five days for a duration of 30 days in total. During each 5-Day DSS treatment phase, fresh 2% DSS was provided on the third day of the five-day cycle. Group 1 (n=5) served as a control (naïve mice) that received only autoclaved water ad libitum throughout the study. On Day 4, mice in Group 3 (n=8) were orally dosed with FTY-720 as positive control (Group 3, n=8) and continued daily dose until end of the study. Also starting on Study Day 4, animals were dosed with Vehicle (Group 2, […]), or with two different doses of cobitolimod (Group 4 and Group 5, n=8 per group) intrarectally. […] Groups 2, 4, and 5 were dosed again on Days 8, 12, 16, 20, 24, and 28.\nBody weight, stool consistency, stool blood, body condition score, and physical health were recorded on dosing days, and two days after each dosing day from at Day 0 through termination on Study Day 30. […] Animals that lost greater than 20% of their pre-treatment body weight were monitored and fed diet/hydro gel for 72 hrs. No animals were terminated due to prolonged body weight loss, or signs of pain and distress due to disease.\nThe study was terminated on Day 30, and necropsy was performed on all animals. Spleens were weighed and then discarded. Colon length and weight was recorded, and the weight/length ratio calculated for each animal. […]"}, "[2]": {"tested_on": "patients with moderate-to-severe active UC", "assay": "Randomized, double-blind, placebo-controlled clinical trial of cobitolimod; symptomatic remission", "type": "in vivo, human", "procedure": "In this randomized, double-blind, placebo-controlled trial, 131 patients with moderate-to-severe active UC were randomized to receive two single doses of the oligonucleotide cobitolimod [30 mg] or placebo administered topically during lower GI endoscopy at baseline and Week 4. The primary endpoint was clinical remission, defined as Clinical Activity (Rachmilewitz) Index [CAI]≤4, at Week 12. Secondary endpoints included mucosal healing and symptomatic remission of key patient-reported outcomes [absence of blood in stool and weekly stool frequency <35].\nEligible patients were adults with moderate to severely active ulcerative colitis with a Clinical Activity Index [CAI] of ≥9 and an endoscopic Mayo score of ≥2, despite treatment with glucocorticosteroids [GCS] [prednisolone] equivalent ≥10 mg/day] for ≥2 weeks prior to inclusion, and previously having failed or been intolerant to treatment with mesalazine ≥2.4 g/day for ≥4 weeks, GCS with at least 0.75 mg/kg as a starting dose, azathioprine or mercaptopurine for ≥3 months, and/or one adequate treatment course of a TNF-α inhibitor. Patients may have tried treatment with cyclosporine or tacrolimus before the trial. Four patients in the placebo group [9.3%] and 5 patients in the cobitolimod group [6.2%] had used cyclosporine prior to the study start, but not in the study.\nDuring the trial, patients could be taking sulfasalazine, aminosalicylates, or thiopurines, and should be on oral GCS at stable doses. Concurrent therapies with cyclosporine, tacrolimus or TNF-α inhibitors during the trial or in the 4 weeks before enrolment, or antibiotics or non-steroidal anti-inflammatory drugs [NSAIDs] in the 2 weeks before enrolment were not permitted.\nEligible patients were randomized in a 2:1 ratio to receive administration of cobitolimod via endoscopy [30 mg] at Week 0 and 4, or matching placebo diluted in 50 mL of sterile water after adequate bowel cleaning for stool content. The application was done proximally to the site of mucosal inflammation, or in the transverse section of the colon in the event of extensive colitis, using a spray catheter during endoscopy. Patients were asked to remain recumbent for 2 h after administration. Patients were followed up with visits after 1, 4, 8, 12, 22, and 52 weeks. At Weeks 0, 4, and 12, patients underwent endoscopic evaluation and biopsies were taken from the most inflamed mucosal area. ICON [Texas, USA] produced the randomization code by a computer-generated procedure, which used the method of randomly permuted blocks. Oral GCS treatment was mandatory at a stable daily dose of >10 mg initiated at least 2 weeks prior to inclusion. Steroid tapering was done to a standard tapering schedule according to European Crohn's and Colitis Organisation [ECCO] guidelines when the patient had reached clinical remission, the earliest at Week 12.\nThe primary endpoint was induction of clinical remission at Week 12, defined as a CAI score of ≤4. […] Secondary endpoints included mucosal healing [endoscopic Mayo sub-score ≤1, endoscopies not centrally read]; clinical remission at Weeks 1, 4, 8, 22 and 52; clinical remission and mucosal healing; symptomatic remission [defined as absence of blood in stool and weekly stool frequency of <35]; histological Geboes score at Week 4 and 12 as assessed by a single trial histopathologist; time to colectomy; and quality of life based on the inflammatory bowel disease questionnaire [IBDQ] and the 36-item short-form survey [SF36] score. Post hoc, the combined score for subjects who achieved both symptomatic remission and mucosal healing was defined."}, "[3]": {"tested_on": "patient with ulcerative colitis refractory to steroids and immunosuppressive therapies", "assay": "Compassionate use program, patient p12; colitis activity index (CAI) course", "type": "in vivo, human", "excerpt": "This example relates to unpublished experimental data that was collected as part of a compassionate use program. A diagnosis of ulcerative colitis was established based on clinical, endoscopic and histological features. Written consent was received for the patient and the treatment approved by the relevant local ethics committee.\nThe patient was a person who was first diagnosed with ulcerative colitis 5 years previously and who had become refractory to steroids and immunosuppressive therapies (GCS, infliximab and natural IFN-β). In the form of an experimental add-on therapy, relapses were treated for 4 years with natural Interferon-beta (Fiblaferon). […] A severe relapse in January 2010 was treated with high doses of steroids in combination with azathioprine and 5-ASA without success. […] The treatment with a high dose of steroid in combination with Infliximab had some effect in reducing the CAI score from 14 to 9 in March 2010. However, the subject was still in a very active state of the disease. […]\nThe patient received 3 doses of 30 mg cobitolimod diluted in 50 mL of sterile water at 4 week intervals as an add on to current therapies. Application of drug was performed during colonoscopy with the aid of a spraying catheter inserted through the colonoscopies biopsy channel and delivered approximately to the upper portion of the descending colon or to the transverse region.\nDepicted is the colitis activity index [CAI] against the time in months. […] 2011 when the treating physician last contacted all the patients to follow-up on the treatments."}, "[4]": {"details": "second multi-dose regime, until March 2011"}},
  "note": "Oligonucleotides are written 5' to 3', each unit as a sugar letter and its base; * is a phosphorothioate linkage, no mark a phosphodiester; rarer units and linkages stand in square brackets, end groups in braces. Plain capitals give the bases only. d = 2'-deoxy (DNA)",
  "data": [
    {"substance": "5′-G*G*A*ACAGTTCGTCCAT*G*G*C-3′ (SEQ ID NO:1) (DNA dG*dG*dA*dAdCdAdGdTdTdCdGdTdCdCdAdT*dG*dG*dC) [cobitolimod]", "values": [
      {"measurement": "colon-shortening effects of DSS (colon length)", "setting": "[1]; 125 μg intrarectally", "result": "significantly reduced"},
      {"measurement": "colonic weight/length ratio", "setting": "[1]; 125 μg intrarectally", "result": "decreased"},
      {"measurement": "colon-shortening effects of DSS (colon length)", "setting": "[1]; 500 μg intrarectally", "result": "reduced"},
      {"measurement": "colonic weight/length ratio", "setting": "[1]; 500 μg intrarectally", "result": "decreased"},
      {"measurement": "delta between active drug and placebo, symptomatic remission", "setting": "[2]; week 4", "result": 18.1, "unit": "%"},
      {"measurement": "percentage of patients in symptomatic remission", "setting": "[2]; week 4, 30 mg at week 0, topically during endoscopy", "result": 32.1, "unit": "%"},
      {"measurement": "delta between active drug and placebo, symptomatic remission", "setting": "[2]; week 8", "result": 16.8, "unit": "%"},
      {"measurement": "percentage of patients in symptomatic remission", "setting": "[2]; week 8, 30 mg at weeks 0 and 4", "result": 28.4, "unit": "%"},
      {"measurement": "decrease in percentage of patients in remission", "setting": "[2]; week 8 as compared to week 4", "result": 3.7, "unit": "%"},
      {"measurement": "delta between active drug and placebo, symptomatic remission", "setting": "[2]; week 12", "result": 11.8, "unit": "%"},
      {"measurement": "percentage of patients in symptomatic remission", "setting": "[2]; week 12, 30 mg at weeks 0 and 4, no dose at week 8", "result": 23.5, "unit": "%"},
      {"measurement": "decrease in percentage of patients in remission", "setting": "[2]; week 12 as compared to week 8", "result": 4.9, "unit": "%"},
      {"measurement": "time patient kept in remission by repeat dosing", "setting": "[3]; first multi-dose regime (May, June and July)", "result": 3, "unit": "months"},
      {"measurement": "time complete clinical remission was further maintained", "setting": "[3]; first multi-dose regime, after week 4, with last dose and steroid tapering", "result": "two"},
      {"measurement": "drop in the CAI score", "setting": "[3]; one week after first 30 mg dose, add-on to current therapies", "result": 4, "unit": "points"},
      {"measurement": "time to clinical remission", "setting": "[3]; second multi-dose regime started 25 Aug. 2010", "result": "≤ 4", "unit": "weeks"},
      {"measurement": "time complete clinical remission was maintained", "setting": "[3]; [4]", "result": 5, "unit": "months"},
      {"measurement": "time patient kept in remission by repeat dosing", "setting": "[3]; [4]", "result": "over five"},
      {"measurement": "remission status", "setting": "[3]; week 4 of first multi-dose regime, with continued steroid tapering", "result": "complete remission"},
      {"measurement": "remission status", "setting": "[3]; week 8 of second multi-dose regime", "result": "complete clinical remission"}
    ]},
    {"substance": "Infliximab: TNF-α inhibitor approved for the treatment of moderate to severe ulcerative colitis [reference compound]", "values": [
      {"measurement": "CAI score after treatment", "setting": "[3]; high dose of steroid in combination with Infliximab, reduced from 14, March 2010", "result": 9},
      {"measurement": "adverse event after treatment", "setting": "[3]; one dose at the end of January, event in February 2010", "result": "severe salmonellosis with septicemia"}
    ]}
  ]
}
